Data from paper PMC1892040 (PLoS Medicine, 2007).
Values joined by “and” are separate entries in the source; they are usually repeats but may differ in a detail not shown here. Equal values may be shown once.

Legend:
[1] = test system: lactate dehydrogenase (LDH); assay: LDH activity in homogenates of treated worms; format: cell-based, Schistosoma mansoni; conditions: 10 μM AF
S. mansoni TGR [2] = molecular target: T1, S. mansoni TGR (Schistosoma mansoni, UniProt Q962Y6)
T1 sequence (Q962Y6 1-598): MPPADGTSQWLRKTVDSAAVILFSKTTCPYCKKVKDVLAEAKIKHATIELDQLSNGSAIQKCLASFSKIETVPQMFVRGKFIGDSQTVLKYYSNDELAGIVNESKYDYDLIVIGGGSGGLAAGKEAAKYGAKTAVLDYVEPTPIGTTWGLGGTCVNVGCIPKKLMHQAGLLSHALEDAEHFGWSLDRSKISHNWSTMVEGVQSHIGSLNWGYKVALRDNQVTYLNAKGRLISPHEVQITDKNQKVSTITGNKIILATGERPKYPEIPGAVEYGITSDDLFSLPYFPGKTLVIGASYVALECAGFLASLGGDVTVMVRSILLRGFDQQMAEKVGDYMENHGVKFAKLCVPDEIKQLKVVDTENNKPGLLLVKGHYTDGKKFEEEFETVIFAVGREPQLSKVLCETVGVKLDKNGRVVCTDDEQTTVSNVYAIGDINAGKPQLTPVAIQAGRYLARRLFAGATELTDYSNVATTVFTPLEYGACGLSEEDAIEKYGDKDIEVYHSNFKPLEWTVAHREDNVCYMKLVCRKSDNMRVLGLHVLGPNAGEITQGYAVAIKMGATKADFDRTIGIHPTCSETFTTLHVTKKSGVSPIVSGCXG
Experimental: (§2) Assays were performed at 25 °C in 0.1 M potassium phosphate (pH 7.4), 10 mM EDTA using 100 μM NADPH unless otherwise stated.
(§3) Initial inhibitor screens were conducted in 200 μl volumes in 96 well plates with 50 μM inhibitor, 100 μM NADPH, and 5 nM TGR in 0.1 M potassium phosphate (pH 7.4), 10 mM EDTA with a preincubation step of 15 min. […] All assays were done in triplicate.

TGR = TGR (Schistosoma mansoni, UniProt Q962Y6); assay: TrxR and GR activities of TGR in homogenates of treated worms; format: cell-based; conditions: after 1 h of treatment with 10 μM AF, compared to control worms
Experimental: (§1) AF was dissolved in DMSO and added to freshly perfused worms in DMEM to 10 μM. Control worms were treated with equal amounts of carrier. Worms were subsequently observed for unpairing, motility, and mortality, and were collected at the indicated time intervals for analysis. Worms were homogenized by sonication in PBS and homogenates were assayed for TrxR and GR activities as described above. […] Each assay was done in triplicate and each experiment was done three times.

mammalian cells = test system: mammalian cells; parameters: method as in PMID 14561156; conditions: cultured in 10 μM AF; cited from earlier work
S. mansoni TGR [3] = molecular target: T1, S. mansoni TGR; format: biochemical; parameters: The entire TGR ORF plus the SECIS element was subcloned into pET-24a; made in house; host or cells: Escherichia coli BL21(DE3) with pSUABC; conditions: read-out: IC50 S. mansoni TGR, DTNB (TrxR activity); 3 mM DTNB, 15 min preincubation with 100 μM NADPH
Experimental: as §2, §3

S. mansoni = assay: Inhibitor studies on infected mice (worm burden); format: in vivo, Schistosoma mansoni; conditions: for Total Worm Burden, Number of Worms, Mean ± SD / Total Worm Burden Reduction: 6 mg/kg twice daily for 9 d; for Total Worm Burden, Number of Worms, Mean ± SD: intraperitoneally; for Total Worm Burden Reduction: versus control, 6 mg/kg
Experimental: Mice (14-wk-old females; C57BL/6 in experiment 1, NIH-Swiss in experiment 2) infected with 60 S. mansoni cercariae were injected intraperitoneally with 6 mg/kg of AF twice daily for 9 d, beginning 7 wk post infection. Infected control mice were injected with equal amounts of carrier. Mice were perfused 1 wk after the final dose of AF and worm burdens were determined.

Human GR = molecular target: T2, Human GR (Homo sapiens, UniProt P00390); conditions: read-out: IC50 Human GR, GSSG; cited from earlier work
T2 sequence (P00390 44-522): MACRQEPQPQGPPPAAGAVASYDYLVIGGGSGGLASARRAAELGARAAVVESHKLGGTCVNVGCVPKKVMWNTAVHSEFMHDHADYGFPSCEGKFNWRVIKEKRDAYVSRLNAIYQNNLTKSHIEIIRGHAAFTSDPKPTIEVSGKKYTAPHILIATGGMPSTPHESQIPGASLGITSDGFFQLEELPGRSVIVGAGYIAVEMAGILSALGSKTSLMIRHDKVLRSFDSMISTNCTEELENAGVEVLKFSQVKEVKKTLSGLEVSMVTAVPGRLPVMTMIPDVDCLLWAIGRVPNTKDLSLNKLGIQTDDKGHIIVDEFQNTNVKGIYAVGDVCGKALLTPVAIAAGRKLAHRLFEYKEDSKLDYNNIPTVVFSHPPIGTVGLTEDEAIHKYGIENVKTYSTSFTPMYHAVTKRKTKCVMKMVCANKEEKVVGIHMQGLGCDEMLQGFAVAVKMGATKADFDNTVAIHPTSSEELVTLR

myeloma cell line SP2/0 = assay: Cytotoxicity assay (sulforhodamine B); format: cell-based; conditions: for 5 d
Experimental: Cytotoxicity assays were performed using sulforhodamine B to determine cellular protein content as described. Briefly, myeloma cell line SP2/0 was cultured in 96-well microtiter plates containing 0.2 ml of RPMI-1640 per well at a cell density of 1,000 per well at 37 °C in 5% CO2. Cells were treated with drug concentrations (or drug carrier alone) and exposure times as indicated. After treatment, cells were fixed with 10% TCA at 4 °C for 1 h. Fixed cells were rinsed to remove fixative and then stained in 0.4% (w/v) sulforhodamine B (Sigma) in 1% acetic acid for 30 min. After washing with 1% acetic acid and dye extraction in 10 mM Tris (pH 10.5), plates were read at A564nm. The A564nm of drug-treated cells was compared to carrier-only-treated cells. The treatments were done in triplicate and the experiments repeated three times.

GSH:GSSG ratio = GSH:GSSG ratio in treated worms; format: cell-based, Schistosoma mansoni; conditions: after 6 h of treatment with 10 μM AF
Experimental: as §1

CC(=O)OC[C@H]1O[C@@H]([S-])[C@H](OC(C)=O)[C@@H](OC(C)=O)[C@@H]1OC(C)=O.CCP(CC)CC.[Au+] [AF, auranofin]
LDH activity in worm homogenates [1]: no significant deviation from controls | activity (S. mansoni TGR [2]): 0% | Inhibition of GR activity of TGR in worm homogenates (TGR): ~100% | Inhibition of TrxR activity of TGR in worm homogenates (TGR): ~100% | Viability of mammalian cells (mammalian cells): over 95% | IC50 (S. mansoni TGR [3]): 0.007 µM | Total Worm Burden, Number of Worms, Mean ± SD (S. mansoni; C57BL/6 mice): 12 ± 7.8 | Total Worm Burden Reduction (S. mansoni; C57BL/6 mice, p < 0.015): 59% and 59^a % | Total Worm Burden, Number of Worms, Mean ± SD (S. mansoni; NIH-Swiss mice): 8.6 ± 1.7 | Total Worm Burden Reduction (S. mansoni; NIH-Swiss mice, p < 0.001): 63% and 63^b % | Worm burden reductions in infected mice (S. mansoni; summary value of abstract): 60% and ~ 60% | IC50 (Human GR): 40 µM | Concentration tolerated by mammalian cell line (myeloma cell line SP2/0): 100 µM | Decrease of GSH:GSSG ratio (GSH:GSSG ratio): 85%
